# Reference: US9688620B2, “Methods for treating fibromyalgia syndrome” (SK Biopharmaceuticals Co., Ltd., priority 2009, dated 2017)
# Assays:
# [1] = system: rats with sciatic nerve ligation; test: Thermal hyperalgesia (hindpaw withdrawal latency, plantar tester) in rats with sciatic nerve ligation; type: in vivo, Sprague-Dawley rats; details: 30 mg/kg IP; for mean paw withdrawal latency: n = 6
# Protocol: Young adult male Sprague-Dawley rats (CD(SD)IGS, 150-200 g) were initially anesthetized with isoflurane in O2 by a mask and the surgical procedure was performed according to the method described by Bennett and Xie (1988). Briefly, the right sciatic nerves were loosely tied using ligatures. All experiments were conducted in accordance with the guidelines of the International Association for the Study of Pain. The behavioral tests were conducted at least 14 days postoperatively.
# The test compound was dissolved in saline and administered intraperitoneally at 30 mg/kg to animals in a volume of 3 mL/kg body weight.
# To test for thermal hyperalgesia, the thermal response was determined by the hindpaw withdrawal latency, using a plantar tester (UGO BASILE, Italy), and a modified method of Hargreaves et al. (1988). Rats were allowed to acclimate within plastic enclosures on a clear glass plate maintained at room temperature. A radiant heat source (intensity 90) was controlled with a timer and focused onto the plantar surface of the rat right hind paw encompassing the glabrous skin. Paw withdrawal stopped both heat source and timer. A maximal cut-off 30 sec was used to prevent tissue damage. Rats were assessed for thermal hyperalgesia predose (0 hr) and at 1, 4 and 8 hours after 30 mg/kg test compound administration.
# Data are expressed as mean±standard error of mean (SEM). The values of behavioral signs of neuropathic pain at various postoperative time points were compared with those of the preoperative control period by a repeated-measure One-way Analysis of Variance (followed by Dunnett's post-hoc test). P-values less than 0.05 were considered to be significant.
# [2] = system: hypocretin cell ablated narcoleptic mice (prepororexin/ataxin-3 transgenic); test: Sleep parameters (EEG/EMG polygraph) in narcoleptic mice; type: in vivo; details: for duration of continuous wakefulness: most narcoleptic mice; for wake-promoting effects (magnitude): active (dark) period; for wakefulness (dose dependence): active period (dosed PO at ZT 14); for wake-promoting effects: resting period (dosed PO at ZT 2)
# Description: (§1) The polygraph signal (EEG and EMG) was captured with SleepSign (Kissel Comtech), and the sleep stage was visually scored with 10 sec epoch for wakefulness, non-REM sleep and REM sleep. Scoring criteria are: Wakefulness is characterized by desynchronized low-amplitude, mixed frequency (>4 Hz) EEG and high EMG activity. Rhythmic alpha (8-9 Hz) wave (with high EMG activities) may also appear. Non-REM is characterized by synchronized, high-amplitude, low-frequency (0.25-4 Hz) with reduced EMG activity (compared to wakefulness). EEG activity in REM sleep is similar to that in wakefulness, with desynchronized, mixed frequency low amplitude waves. Rhythmic alpha (8-9 Hz) wave with reduced EMG activities may also appear. […] activity during REM sleep is reduced even further and in many cases, completely absent. Some muscle twitching may be apparent in the EMG trace during REM sleep.
# (§2) Three drug doses of the test compound (50, 100 and 150 mg/kg PO) plus vehicle, was orally administered at ZT 2 (2 hours after light on) or ZT 14 (2 hours after light off), and the effects on sleep was monitored for 6 hours after the drug administration (the sleep data was collected for 30 hours after the drug injection, and are available for further analysis). The doses for modafinil were 50 and 200 mg/kg PO (plus vehicle), and modafinil was also administered at ZT 2 and ZT14.
# (§3) If the polygraph signals of some mice were not sufficient to score the sleep stage with accuracy (especially bad EMG), data from these animals were excluded, and the minimum of 5 animals (except for the highest dose of the test compound in wild-type mice in dark period, n=4) were included for the data analysis and number of animals were indicated in the figures.
# (§4) Effects of test compound and modafinil on the amount of wake, non-REM sleep, REM sleep (cumulative seconds), number of episodes for each sleep stage during 6 hours, mean wake/sleep-bout lengths (seconds) were analyzed in each animal and the mean of each parameter was calculated in each genotype. The effects of compounds on wake and sleep amounts are useful to evaluate the wake promoting potency, and the number of episodes for each sleep stage and the mean wake/sleep bout length are parameters for evaluating the sleep fragmentation. Amphetamine and modafinil, two main wake-promoting compounds currently used for the treatment of EDS associated with various etiologies (narcolepsy, idiopathic hypersomnia and secondary EDS), are known to increase wake time and prolong wake bout length in normal and EDS conditions.
# (§5) A comparison of the effects between hypocretin deficient and wild-type mice is very useful in determining if the wake-promotion of the test compound is dependent on the availability of hypocretins, and if there is a possible change in the sensitivity of the receptive mechanisms of test compound in narcoleptic mice due to the hypocretin ligand deficiency.
# [3] = system: littermate wild-type mice; test: Sleep parameters (EEG/EMG polygraph) in littermate wild-type mice; type: in vivo; details: for duration of continuous wakefulness: most wild-type mice; for wake-promoting effects: resting period (dosed PO at ZT 2)
# Description: as §1, §2, §3, §4, §5
# [4] = system: Male CD-1 mice; test: Forced swimming test in mice; type: in vivo; details: for mean duration of immobility: mice
# Protocol: (§6) Male CD-1 mice (16-24 g) and male Wistar rats (90-125 g) were utilized in these experiments. The test compound (10, 15 and 30 mg/kg) was dissolved in physiological saline (0.9%) and administered orally PO in a volume of 1 mL/100 g body weight.
# (§7) Mice and rats were placed in glass cylinders (1000 ml beakers; height 14 cm, diameter 11.5 cm) and (4000 ml beakers; height 24.5 cm, diameter 18.0 cm) respectively, containing water (25 degrees Celsius) up to a height of 9.0 cm for mice and 19.0 for rats. […] Immobility was defined as lack of movement, such as floating in the water with little or no movement of hind legs. Duration of immobility was timed with a stopwatch and recorded. In some experiments, mice or rats were allowed to swim for 6 or 10 minutes, respectively, one day prior to the forced swimming experiment.
# (§8) In the single dose test, mice or rats were given test compound or 0.9% NaCl and placed in glass cylinders 1 hour or 4 hours post-treatment, respectively. In the multiple dose experiments, mice were dosed twice a day for 3 days and given an additional dose on Day 4. In addition, the mice were placed in the glass cylinders containing water at 25 degrees Celsius and allowed to swim for six minutes on Day 3. Statistical evaluation was performed using a computer program based on probit analysis. Statistical significance was determined using Student's t-test at a P value of <0.05.
# [5] = system: male Wistar rats; test: Forced swimming test in rats; type: in vivo; details: 4 hours post-treatment
# Protocol: as §6, §7, §8
# [6] = resting period, genotypes not distinguished
smiles,measurement,setting,value
"NC(=O)OC[C@H](N)Cc1ccccc1 [test compound, O-carbamoyl-(D)-phenylalaminol]",mean paw withdrawal latency,[1]; 0 hr (predose baseline),5.17 s
same,mean paw withdrawal latency,"[1]; 1 hr post-injection, P < 0.01 vs 0 hr",6.33 s
same,mean paw withdrawal latency,"[1]; 4 hr post-injection, P < 0.05 vs 0 hr",6.06 s
same,mean paw withdrawal latency,[1]; 8 hr post-injection,5.63 s
same,paw withdrawal latency to a thermal stimulus (in words),[1]; vs pre-injection (0 hr) latency,significantly increased
same,% of Antagonism,[1]; 1 hr vs 0 hr latency,0.14**(22.3%
same,% of Antagonism,[1]; 4 hr vs 0 hr latency,0.21*(17.2%)
same,% of Antagonism,[1]; 8 hr vs 0 hr latency,0.16(8.8%)
same,duration of continuous wakefulness,"[2]; 50 mg/kg PO, resting period",up to 3 hours
same,duration of continuous wakefulness,"[2]; 100 mg/kg PO, resting period",≤ 4 h
same,wake amounts,"[2]; 100 mg/kg, active period, narcoleptic mice",brought up to the levels of wild-type mice
same,duration of continuous wakefulness,"[2]; 150 mg/kg PO, resting period",≤ 5 h
same,wake amounts,"[2]; 150 mg/kg, active period, narcoleptic mice",brought up to the levels of wild-type mice
same,Non-REM and REM sleep during the period of continuous wakefulness,"[2]; 50, 100, 150 mg/kg PO, resting period, narcoleptic mice",completely suppressed
same,sleep patterns of narcoleptic mice,[2]; 50-150 mg/kg PO,normalize
same,bouts of wakefulness,"[2]; 50-150 mg/kg PO, narcoleptic mice",significantly increased
same,wake-promoting effects (magnitude),[2]; narcoleptic mice,much pronounced
same,wakefulness (dose dependence),[2]; narcoleptic mice,dose-dependently increased
same,amounts of non-REM and REM sleep,"[2]; active period, narcoleptic mice",brought down to the levels of wild-type mice
same,sleep that occurred after the prolonged wakefulness,"[2]; polygraphic assessments, resting period, genotypes not distinguished",normal
same,wake-promoting effects,[2]; narcoleptic mice,Very potent
same,REM sleep,[2]; [6],potently reduced
same,EEG patterns after administration,"[2]; resting period, wild-type and narcoleptic mice not distinguished",no abnormal EEG patterns
same,duration of continuous wakefulness,"[3]; 50 mg/kg PO, resting period",up to 3 hours
same,duration of continuous wakefulness,"[3]; 100 mg/kg PO, resting period",≤ 4 h
same,duration of continuous wakefulness,"[3]; 150 mg/kg PO, resting period",≤ 5 h
same,Non-REM and REM sleep during the period of continuous wakefulness,"[3]; 50, 100, 150 mg/kg PO, resting period, wild-type mice",completely suppressed
same,bouts of wakefulness,"[3]; 50-150 mg/kg PO, wild-type mice",significantly increased
same,wake-promoting effects (magnitude),"[3]; active (dark) period, wild-type mice, high baseline wakefulness",only small effects
same,wakefulness (dose dependence),"[3]; active period (dosed PO at ZT 14), wild-type mice",dose-dependently increased
same,wake-promoting effects,[3]; wild-type mice,Very potent
same,ED50,"[4]; Mus musculus, multiple dosing PO, mice (twice a day for 3 days plus a dose on Day 4), read-out: ED50 (reduction in mean immobility time)",5.5 mg/kg
same,mean duration of immobility,"[4]; multiple dosing 3 mg/kg PO, control 85 sec",63 s
same,mean duration of immobility,"[4]; multiple dosing 5 mg/kg PO, control 136 sec, significant",73 s
same,mean duration of immobility,"[4]; multiple dosing 8 mg/kg PO, control 114 sec, significant",39 s
same,mean duration of immobility,"[4]; single dose 10 mg/kg PO, control 131 sec",101 s
same,mean duration of immobility,"[4]; single dose 15 mg/kg PO, control 154 sec, significant",80 s
same,mean duration of immobility,"[4]; single dose 30 mg/kg PO, control 132 sec, significant",30 s
same,mean duration of immobility,"[5]; 10 mg/kg PO, control 74 sec, not statistically significant",62 s
same,mean duration of immobility,"[5]; 15 mg/kg PO, control 65 sec, not statistically significant",39 s
same,mean duration of immobility,"[5]; 30 mg/kg PO, control 38 sec, significant",9 s
"NC(=O)C[S+]([O-])C(c1ccccc1)c1ccccc1 (stereo not drawn) [modafinil, reference compound]",wake amount,"[2]; 200 mg/kg (high dose), active period, narcoleptic mice",did not bring the wake amount to that of the wild-type baseline levels
same,wake-promoting effects (magnitude),[2]; narcoleptic mice,much weaker
same,wakefulness (dose dependence),[2]; narcoleptic mice,dose-dependently increase
same,dose of test compound to which the wake promoting effect of modafinil roughly corresponds,"[2]; modafinil 200 mg/kg PO, resting period, genotypes not distinguished",~50 mg/kg
same,wake-promoting effects,[2]; narcoleptic mice,modest
same,REM sleep,[2]; [6],did not strongly reduce REM sleep
same,wake-promoting effects,[3]; wild-type mice,modest
